From the supplement of paper PMC10784567
± gives the standard deviation of the averaged measurements.

Compound: C=C1C[C@H]2C=Nc3cc(OCCCCCOc4cc5c(cc4OC)C(=O)N4CC(=C)C[C@H]4C=N5)c(OC)cc3C(=O)N2C1 [SG2057]
Assay: absolute IC50 (cell viability, CellTiter-Glo); higher = less potent
Conditions: treatment time: 3 days
Procedure: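 Large cancer cell line panel screens in 384-well plates. Cells were treated for 3 days with a 9-point dose titration of the free PBD dimer SG2057; viability was read with CellTiter-Glo. Absolute IC50 came from a four-parameter Hill fit normalised to the median of vehicle (DMSO) wells. Several independent screens (projects) per cell line are averaged; values in µM, lowest-dose floor about 1.524e-5 µM.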

Test System | absolute IC50 [nM]
SBC-7 | 0.53
SCLC-21H | 0.788
SCLC-22H | 0.905
SF268 | 0.424 ± 0.77
SF539 | 0.27 ± 0.54
SH-SY5Y | 0.142
SIMA | 0.863
SISO | 0.153
SJCRH30 | 0.422
SJCRH30 (RC13) | 0.187
SJSA-1 | 0.0954
SK-BR-3 | 0.69 ± 0.71
SK-CO-1 | 0.201 ± 0.19
SK-HEP-1 | 0.205
SK-MEL-1 | 1.11 ± 0.28
SK-MEL-2 | 1.16 ± 0.55
SK-MEL-31 | 3.78
SK-N-AS | 0.187
SK-N-BE(2) | 1.64
SK-N-DZ | 5.04
SK-N-FI | 8.79 ± 11
SK-N-SH | 0.114
SK-UT-1B | < 0.0152

Test System | absolute IC50 [nM]
SKG-II | 0.0743
SKG-IIIa | 17.7
SKG-IIIb | 1.79
SM1 | 0.444
SNB-19 | 0.187
SNG-M | 0.285 ± 0.16
SNU-1 | 1.89
SNU-16 | 0.344 ± 0.1
SNU-182 | 1.36 ± 1.5
SNU-216 | 1.57 ± 2.9
SNU-387 | 5.76
SNU-449 | 5.84
SNU-475 | 2.56 ± 3.8
SNU-484 | 0.327 ± 0.11
SNU-601 | 0.0897 ± 0.046
SNU-620 | 2.3 ± 3.1
SNU-638 | 0.137 ± 0.046
SNU-668 | 0.573
SNU-719 | 3.72 ± 4
SNU-C1 | 3.4 ± 0.35
SU-DHL-6 | 0.536 ± 0.73
SU.86.86 | 0.733 ± 0.48
SUM 52PE | 2.62 ± 1.5

Test System | absolute IC50 [nM]
SUM 149PT | 1.68 ± 1.6
SUM 159PT | 0.681
SW 403 | 3.64 ± 1.6
SW 480 | 0.462 ± 0.51
SW 626 | 3.67
SW 780 | 0.754
SW 837 | 4.01 ± 0.21
SW 900 | 3.18
SW 948 | 3.39 ± 3.9
SW 1463 | 7.83 ± 8.2
SW 1990 | 0.516 ± 0.22
SiHa | 1.56
T84 | 2.92 ± 2.4
T98G | 3.18 ± 3.7
T.T | 1.93
TC-1 | 0.384
TC-71 | < 0.0152
TK-10 | 2.7 ± 2.1
TOV-21G | 0.261
TRAMP-C1 | 0.345
TRAMP-C2 | 0.154
TYK-nu | 0.113 ± 0.18
Toledo | 0.279 ± 0.28

Test System | absolute IC50 [nM]
U266B1 | 2.64 ± 2.4
U-2 OS | 0.53
U-87 MG | 3.32
U-2932 | 0.213 ± 0.23
UACC-62 | 0.77 ± 0.36
UACC-257 | 2.41
UCSD-242l | 1.29 ± 0.84
UKE-1 | 0.0189 ± 0.0056
UM-RC-6 | 0.651
UM-RC-7 | 0.672
UM-UC-1 | 0.557
UMC-11 | 14.8
VMRC-LCD | 4.27
VMRC-RCW | 3.72
VP229 | 3 ± 3.4
VP267 | 4.86
WM-115 | 0.436 ± 0.57
WSU-DLCL2 | 0.358 ± 0.36
WiDr | 1.38 ± 0.42
YAPC | 1.16 ± 0.74
huH-1 | 2.28
